In patent US12679878B2, “CRF2 receptor agonists and their use in therapy” (SANOFI, priority 2020, dated 2026):
Starred links: 1 amine or outer side, 2 acyl side, 3 side chain; linkers in the order of their positions; H or OH if unused. Non-standard residues stand in square brackets, D forms with d. Residues, ends and D or L forms follow the SMILES beside them. Groups on a side chain read outwards from the residue. *: point of attachment. C18 diacid = O=C(O)CCCCCCCCCCCCCCCCC(=O)*; γGlu = O=C(O)[C@H](CCC(=O)[*:2])N[*:1]; Palmitoyl = CCCCCCCCCCCCCCCC(=O)*; AEEA = NCCOCCOCC(=O)O; Aib = CC(C)(N)C(=O)O

Target: T1, human CRF2α receptor (Homo sapiens, UniProt Q13324)
T1 construct: expressed in transfected cells; host or cells: TeloHEAC
T1 sequence (Q13324 1-411): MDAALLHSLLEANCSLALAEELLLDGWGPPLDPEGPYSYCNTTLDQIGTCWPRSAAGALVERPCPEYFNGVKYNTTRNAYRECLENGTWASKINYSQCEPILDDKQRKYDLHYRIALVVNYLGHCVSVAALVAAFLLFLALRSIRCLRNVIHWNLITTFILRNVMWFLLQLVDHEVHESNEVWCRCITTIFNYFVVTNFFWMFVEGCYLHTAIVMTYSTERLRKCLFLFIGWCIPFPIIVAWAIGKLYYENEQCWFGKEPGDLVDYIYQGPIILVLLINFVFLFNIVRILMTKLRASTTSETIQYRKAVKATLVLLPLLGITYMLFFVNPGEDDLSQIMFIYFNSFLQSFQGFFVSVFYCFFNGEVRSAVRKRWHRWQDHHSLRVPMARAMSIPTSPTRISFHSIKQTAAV
Experiment: cAMP agonism at human CRF2 α receptor in TeloHEAC cells (Example 7)
Format: cell-based
Details: cAMP HTRF, TeloHEAC cells stably expressing human CRF2 α, 0% HSA; read-out: EC50 [nM], 0% HSA
Experimental: Agonism of compounds for human corticotropin-releasing factor 2α (CRF2 α receptor) was determined by functional assays measuring CAMP response of a TeloHEAC cell line stably expressing human CRF2 α receptor.
Cells were grown in a T175 culture flask placed at 37° C. to near confluence in medium (DMEM/10% FBS) and collected in 2 ml vials in cell culture medium containing 10% DMSO in a concentration of 10-50 million cells/ml. Each vial contained 1.8 ml cells. The vials were slowly frozen to −80° C. in isopropanol and then transferred in liquid nitrogen for storage. Prior to use, frozen cells were thawed quickly at 37° C. and washed (5 min at 900 rpm) with 20 ml cell buffer (1×HBSS; 20 mM HEPES; 0% or 0.1% HSA). Cells were resuspended in assay buffer (cell buffer plus 2 mM IBMX) and adjusted to a cell density of 1 million cells/ml. For measurement, 5 μl cells (final […]) and 5 μL of test compound were added to a 384-well plate, followed by incubation for 30 minutes at room temperature.
The CAMP content of cells was determined using a kit from Cisbio Corp. (cat. no. 62AM4PEC) based on HTRF (Homogenous Time Resolved Fluorescence). After addition of HTRF reagents diluted in lysis buffer (kit components), the plates were incubated for 1 h, followed by measurement of the fluorescence ratio at 665/620 nm. The percent activity value (E %) was calculated by setting 1000 nM of urocortin 2 (UCN2) as 100%. The in vitro potency of the compounds was quantified by determining the concentrations that caused 50% activation of maximal response (EC50).

EC50	Structure (SMILES)
1.6 nM	CC[C@H](C)[C@H](N)C(=O)N[C@H](C(=O)N[C@@H](CC(C)C)C(=O)N[C@@H](CO)C(=O)N[C@@H](CC(C)C)C(=O)N[C@@H](CC(=O)O)C(=O)N[C@H](C(=O)N1CCC[C@H]1C(=O)N[C@H](C(=O)N[C@@H](CCCCN)C(=O)N[C@@H](CC(C)C)C(=O)N[C@@H](CCCCNC(=O)COCCOCCNC(=O)COCCOCCNC(=O)CC[C@H](NC(=O)CCCCCCCCCCCCCCCCC(=O)O)C(=O)O)C(=O)N[C@@H](CCC(N)=O)C(=O)N[C@@H](CCCCN)C(=O)N[C@@H](CC(C)C)C(=O)N[C@@H](CC(C)C)C(=O)N[C@@H](CCCCN)C(=O)N[C@@H](CCC(N)=O)C(=O)N[C@@H](CCC(=O)O)C(=O)N[C@@H](CCCNC(=N)N)C(=O)N[C@@H](CCC(N)=O)C(=O)N[C@@H](CCCNC(=N)N)C(=O)N[C@@H](CCCCN)C(=O)N[C@@H](CCC(=O)O)C(=O)N[C@@H](CCCNC(=N)N)C(=O)N[C@@H](CCC(N)=O)C(=O)N[C@@H](CCC(N)=O)C(=O)N[C@@H](C)C(=O)N[C@@H](CCC(=O)O)C(=O)N[C@H](C(=O)N[C@@H](CC(N)=O)C(=O)N[C@@H](CCCCN)C(=O)N[C@@H](CCCNC(=N)N)C(=O)N[C@H](C(=O)N[C@@H](CC(C)C)C(=O)N[C@@H](CCC(=O)O)C(=O)N[C@@H](CCCNC(=N)N)C(=O)N[C@H](C(N)=O)C(C)C)[C@@H](C)CC)[C@@H](C)O)[C@@H](C)O)C(C)C)C(C)C [compound 37] (H-IVLSLDVPTKLK([AEEA-AEEA-γGlu-C18 diacid])QKLLKQERQRKERQQAETNKRILERV-NH2; N-terminus assumed)
20.9 nM	CC[C@H](C)[C@H](N)C(=O)N[C@H](C(=O)N[C@@H](CC(C)C)C(=O)N[C@@H](CO)C(=O)N[C@@H](CC(C)C)C(=O)N[C@@H](CC(=O)O)C(=O)N[C@H](C(=O)N1CCC[C@H]1C(=O)N[C@H](C(=O)N[C@@H](CCCCN)C(=O)N[C@@H](CC(C)C)C(=O)N[C@@H](CCCCNC(=O)COCCOCCNC(=O)COCCOCCNC(=O)CC[C@H](NC(=O)CCCCCCCCCCCCCCCCC(=O)O)C(=O)O)C(=O)N[C@@H](CCC(N)=O)C(=O)N[C@@H](CCCCN)C(=O)N[C@@H](CC(C)C)C(=O)N[C@@H](CC(C)C)C(=O)N[C@@H](CCCCN)C(=O)N[C@@H](CCC(N)=O)C(=O)N[C@@H](CCC(=O)O)C(=O)N[C@@H](CCCNC(=N)N)C(=O)N[C@@H](CCC(N)=O)C(=O)N[C@@H](CCCNC(=N)N)C(=O)NC(C)(C)C(=O)N[C@@H](CCC(=O)O)C(=O)N[C@@H](CCCNC(=N)N)C(=O)N[C@@H](CCC(N)=O)C(=O)N[C@@H](CCC(N)=O)C(=O)N[C@@H](C)C(=O)N[C@@H](CCC(=O)O)C(=O)N[C@H](C(=O)N[C@@H](CC(N)=O)C(=O)N[C@@H](CCCCN)C(=O)N[C@@H](CCCNC(=N)N)C(=O)N[C@H](C(=O)N[C@@H](CC(C)C)C(=O)N[C@@H](CCC(=O)O)C(=O)N[C@@H](CCCNC(=N)N)C(=O)N[C@H](C(N)=O)C(C)C)[C@@H](C)CC)[C@@H](C)O)[C@@H](C)O)C(C)C)C(C)C [compound 38] (H-IVLSLDVPTKLK([AEEA-AEEA-γGlu-C18 diacid])QKLLKQERQR[Aib]ERQQAETNKRILERV-NH2)
15.4 nM	CC[C@H](C)[C@H](N)C(=O)N[C@H](C(=O)N[C@@H](CC(C)C)C(=O)N[C@@H](CO)C(=O)N[C@@H](CC(C)C)C(=O)N[C@@H](CC(=O)O)C(=O)N[C@H](C(=O)N1CCC[C@H]1C(=O)N[C@H](C(=O)N[C@@H](CCCCN)C(=O)N[C@@H](CC(C)C)C(=O)N[C@@H](CCCCNC(=O)COCCOCCNC(=O)COCCOCCNC(=O)CC[C@H](NC(=O)CCCCCCCCCCCCCCCCC(=O)O)C(=O)O)C(=O)N[C@@H](CCC(N)=O)C(=O)N[C@H](C(=O)N[C@@H](CC(C)C)C(=O)N[C@@H](CC(C)C)C(=O)N[C@@H](CCC(=O)O)C(=O)N[C@@H](CCC(N)=O)C(=O)N[C@@H](CCC(=O)O)C(=O)N[C@@H](CCCNC(=N)N)C(=O)N[C@@H](CCC(N)=O)C(=O)N[C@@H](CCCNC(=N)N)C(=O)N[C@@H](CCCCN)C(=O)N[C@@H](CCC(=O)O)C(=O)N[C@@H](CCCNC(=N)N)C(=O)N[C@@H](CCC(N)=O)C(=O)N[C@@H](CCC(N)=O)C(=O)N[C@@H](C)C(=O)N[C@@H](CCC(=O)O)C(=O)N[C@H](C(=O)N[C@@H](CC(N)=O)C(=O)N[C@H](C(=O)N[C@@H](CCC(N)=O)C(=O)N[C@H](C(=O)N[C@@H](CC(C)C)C(=O)N[C@@H](C)C(=O)N[C@@H](CCC(N)=O)C(=O)N[C@H](C(N)=O)C(C)C)[C@@H](C)CC)C(C)C)[C@@H](C)O)[C@@H](C)CC)[C@@H](C)CC)C(C)C)C(C)C [compound 40] (H-IVLSLDVPIKLK([AEEA-AEEA-γGlu-C18 diacid])QILLEQERQRKERQQAETNVQILAQV-NH2; N-terminus assumed)

Further lines, the molecule ahead of its results:

Structure (SMILES)	EC50
CCCCCCCCCCCCCCCC(=O)N[C@@H](CCC(=O)NCCCC[C@H](NC(=O)[C@H](CC(C)C)NC(=O)[C@H](CCCCN)NC(=O)[C@@H](NC(=O)[C@@H]1CCCN1C(=O)[C@H](NC(=O)[C@H](CC(=O)O)NC(=O)[C@H](CC(C)C)NC(=O)[C@H](CO)NC(=O)[C@H](CC(C)C)NC(=O)[C@@H](NC(=O)[C@@H](N)[C@@H](C)CC)C(C)C)C(C)C)[C@@H](C)O)C(=O)N[C@@H](CCC(N)=O)C(=O)N[C@@H](CCCCN)C(=O)N[C@@H](CC(C)C)C(=O)N[C@@H](CC(C)C)C(=O)N[C@@H](CCCCN)C(=O)N[C@@H](CCC(N)=O)C(=O)N[C@@H](CCC(=O)O)C(=O)N[C@@H](CCCNC(=N)N)C(=O)N[C@@H](CCC(N)=O)C(=O)N[C@@H](CCCNC(=N)N)C(=O)N[C@@H](CCCCN)C(=O)N[C@@H](CCC(=O)O)C(=O)N[C@@H](CCCNC(=N)N)C(=O)N[C@@H](CCC(=O)O)C(=O)N[C@@H](CCC(N)=O)C(=O)N[C@@H](C)C(=O)N[C@@H](CCC(=O)O)C(=O)N[C@@H](CCCCN)C(=O)N[C@@H](CC(N)=O)C(=O)N[C@H](C(=O)N[C@@H](CCCNC(=N)N)C(=O)N[C@H](C(=O)N[C@@H](CC(C)C)C(=O)N[C@@H](CCC(=O)O)C(=O)N[C@@H](CCCNC(=N)N)C(=O)N[C@H](C(N)=O)C(C)C)[C@@H](C)CC)[C@@H](C)O)C(=O)O [compound 33] (H-IVLSLD[dV]PTKLK([γGlu-Palmitoyl])QKLLKQERQRKEREQAEKNTRILERV-NH2)	0.2 nM
CC[C@H](C)[C@H](NC(=O)[C@H](CCC(N)=O)NC(=O)[C@H](CCCCN)NC(=O)[C@H](CC(N)=O)NC(=O)[C@@H](NC(=O)[C@H](CCCCN)NC(=O)[C@H](C)NC(=O)[C@H](CCCCN)NC(=O)[C@H](CCC(N)=O)NC(=O)[C@H](CCCNC(=N)N)NC(=O)[C@H](CCC(N)=O)NC(=O)[C@H](CCCCN)NC(=O)[C@H](CCCCN)NC(=O)[C@H](CCC(N)=O)NC(=O)[C@H](CCCCN)NC(=O)[C@H](CCC(=O)O)NC(=O)[C@H](CCC(N)=O)NC(=O)[C@H](CCCCN)NC(=O)[C@H](CC(C)C)NC(=O)[C@H](CC(C)C)NC(=O)[C@H](CCCCN)NC(=O)[C@H](CCC(N)=O)NC(=O)[C@H](CCCCNC(=O)COCCOCCNC(=O)COCCOCCNC(=O)CC[C@H](NC(=O)CCCCCCCCCCCCCCCCC(=O)O)C(=O)O)NC(=O)[C@@H](NC(=O)[C@H](CCCCN)NC(=O)[C@@H](NC(=O)[C@@H]1CCCN1C(=O)[C@@H](NC(=O)[C@H](CC(=O)O)NC(=O)[C@H](CC(C)C)NC(=O)[C@H](CO)NC(=O)[C@H](CC(C)C)NC(=O)[C@@H](NC(=O)[C@@H](N)Cc1ccccc1)[C@@H](C)O)C(C)C)[C@@H](C)O)[C@@H](C)CC)[C@@H](C)O)C(=O)N[C@@H](CC(C)C)C(=O)N[C@@H](CCC(=O)O)C(=O)N[C@@H](CCC(N)=O)C(=O)N[C@H](C(N)=O)C(C)C [compound 34] (H-FTLSLDVPTKIK([AEEA-AEEA-γGlu-C18 diacid])QKLLKQEKQKKQRQKAKTNKQILEQV-NH2; N-terminus assumed)	6.88 nM
